Reference: patent US9426996B2, “Use of benzoxaboroles as volatile antimicrobial agents on meats, plants, or plant parts” (AgroFresh Inc., priority 2013, dated 2016)

Key:
[1] = test system: Penicillium digitatum; test: in vivo volatile bioassay using orange fruit (Compound A); details: oranges
Procedure: In order to assess the in vivo activity of volatile antimicrobial Compound A in fruit, a volatile bioassay is developed using orange fruit. Two oranges are placed inside a PET clamshell. Three fresh wounds per orange are inoculated with 30 μL of 1×10^6 per mL Penicillium digitatum spore suspension. The clamshells are placed inside a 10.8-cup SnapWare airtight container (Model #109842). A 42.5 mm Whatman #1 filter disk (Cat. No. 1001-042) is placed on a watch glass. Compound A is dissolved in acetone and added to the disks in a dose dependent manner to produce a final headspace concentration of 2, 10, or 50 mg/L. The acetone is permitted to evaporate for five minutes. The containers are then closed with the lids and placed for three days at 21° C. After storage, fruits are evaluated for disease incidence (mm diameter of the rot) and pathogen sporulation (mm diameter) on the surface of the fruits for an additional two days at 21° C., with results summarized in Table 18.

[2] = test system: Botrytis cinerea; test: in vivo sublimation bioassay on fruit, 10 mg/L (Example 22); details: 10 mg/L sublimed, three day treatment plus three days at 21° C.
Procedure: (§1) To assess the in vivo activity of volatile antimicrobial Compound A (FIG. 1) in fruit, a volatile bioassay is developed using apple, pear, orange, strawberry, grape and blueberry. Two apples, 2 oranges, 2 pears, 8 strawberries, 16 grapes or 30 blueberries (per replicate, in duplicate) are placed in a clamshell with the stem end facing up for all fruits except for strawberry (stem end facing downwards). A fresh wound is inoculated with 20 μL 1×10^6 per mL Penicillium expansum spore suspension (apple and pear), 20 μL 1×10^6 per mL Penicillium digitatum spore suspension (orange), and 20 μL (strawberry and grape) or 10 μL (blueberry) of 1×10^6 per mL Botrytis cinerea spore suspension. The clamshells are placed inside a 117 L Rubbermaid storage box (Cat #2244) with lids closed. Compound A, dissolved in acetone, is pipetted onto a cotton strip, where the acetone is allowed to evaporate for five minutes, and then introduced into the container by a sublimation device (copper tube heated to 200° C. with fan flow at 0.5 L/min) to achieve a final headspace concentration of 10 mg/L. The containers are then held for three days at 21° C. After treatment, fruits are held for an additional three days at 21° C., then evaluated for disease incidence (mm diameter of browning or water-soaked lesions) and pathogen sporulation (mm diameter) for apple, pear and orange, as well as Botrytis cinerea disease incidence (%) and severity (0 to 4) for strawberry, grape and blueberry, with results summarized in Table 21.

[3] = test system: Penicillium digitatum; test: as above; details: Orange; 10 mg/L sublimed; three day treatment plus three days at 21° C.
Procedure: as §1

[4] = test system: Penicillium expansum; test: as above; details: 10 mg/L sublimed, three day treatment plus three days at 21° C.
Procedure: as §1

[5] = test system: Penicillium digitatum; test: in vitro contact fungicide assay (amended PDA); format: cell-based; details: three days at 23° C.
Procedure: In order to assess the activity of Compound A as a contact fungicide, an in vitro assay is developed. A 6 cm-diameter Petri plate is used. Compound A is amended into full-strength Potato Dextrose Agar (PDA) to achieve a final solution concentration of 10, 2, 0.4, or 0.08 mg/L, and 15-mL volume of solution is added to each plate. After cooling, 1 μL of 1×10^5 per mL Penicillium expansum or Penicillium digitatum spore suspension is spot-pipetted into the center of the agar.
Plates are sealed with a parafilm and placed in an incubator held at 23° C. After three days of storage, the cultures are evaluated for percent growth relative to control based on measurement of fungal colony diameter.

[6] = test system: Phytophthora capsici; test: in vivo volatile assay on squash; details: 10 mg/L, 21° C. for 3 days
Procedure: To test the effect of Compound A (FIG. 1) on vegetables, potato, onion and squash were obtained from a local store, and the surface sterilized with 0.825% sodium hypochlorite (NaOCl). A slice of potato or two leaves of onion were placed in a sterile Petri plate, while whole squash were placed in a sterile 10.8-cup SnapWare airtight container (Model #109842). Each slice of potato was inoculated with 20 μL of a 1×10^5 spores/mL Fusarium sambucinum suspension, while onions were inoculated with 20 μL of a 1×10^6 spores/mL Botrytis cinerea suspension. For inoculation of squash, a small core was removed, and a mycelial plug of Phytophthora capsici was inserted and capped with the core. Compound A was diluted in acetone, and added to a 42.5 mm Whatman #1 filter disk (Cat. No. 1001-042) attached to the inner side of the lid at a rate to achieve a final headspace concentration of 10 mg/L. The acetone was permitted to evaporate for 5 minutes before parafilm sealing the plates or closing the airtight containers. The vegetables were incubated at 21° C. for 3 days, and evaluated for mycelial growth, dry rot, and water-soaked appearance (mm diameter) with results summarized in Table 13.

OB1OCc2cc(F)ccc21 [Compound A]
Sporulation (mm) ([1]; 2 mg/L, Day 0): 0 mm
Water soaked lesions (mm) ([1]; 2 mg/L, Day 0): 0 mm
Sporulation (mm) ([1]; 2 mg/L, Day 1): 0.4 mm
Water soaked lesions (mm) ([1]; 2 mg/L, Day 1): 0 mm
Sporulation (mm) ([1]; 2 mg/L, Day 2): 2.7 mm
Water soaked lesions (mm) ([1]; 2 mg/L, Day 2): 13.4 mm
Sporulation (mm) ([1]; 10 mg/L, Day 0): 0.5 mm
Water soaked lesions (mm) ([1]; 10 mg/L, Day 0): 0 mm
Sporulation (mm) ([1]; 10 mg/L, Day 1): 0.4 mm
Water soaked lesions (mm) ([1]; 10 mg/L, Day 1): 0 mm
Sporulation (mm) ([1]; 10 mg/L, Day 2): 2.5 mm
Water soaked lesions (mm) ([1]; 10 mg/L, Day 2): 9 mm
Sporulation (mm) ([1]; 50 mg/L, Day 0): 0 mm
Water soaked lesions (mm) ([1]; 50 mg/L, Day 0): 0 mm
Sporulation (mm) ([1]; 50 mg/L, Day 1): 0 mm
Water soaked lesions (mm) ([1]; 50 mg/L, Day 1): 0 mm
Sporulation (mm) ([1]; 50 mg/L, Day 2): 1.2 mm
Water soaked lesions (mm) ([1]; 50 mg/L, Day 2): 5 mm
Incidence (%) ([2]; Blueberry): 5%
Severity (0-4) ([2]; Blueberry): 0.03
Incidence (%) ([2]; Grape): 26.7%
Severity (0-4) ([2]; Grape): 0.1
Incidence (%) ([2]; Strawberry): 18.8%
Severity (0-4) ([2]; Strawberry): 0.09
Sporulation (mm) [3]: 8.55 mm
Water soaked lesion [3]: 3.04 mm
Browning (mm) ([4]; Apple): 5.4 mm
Sporulation (mm) ([4]; Apple): 0 mm
Browning (mm) ([4]; Pear): 2.7 mm
Sporulation (mm) ([4]; Pear): 0 mm
Incidence (%) P. digitatum ([5]; 0.08 mg/L): 42.0%
Incidence (%) P. digitatum ([5]; 0.4 mg/L): 12.5%
Incidence (%) P. digitatum ([5]; 2 mg/L): 0.0%
Incidence (%) P. digitatum ([5]; 10 mg/L): 0.0%
Mycelial growth [6]: 1.1 mm
Water soaked [6]: 5.3 mm
